One data set addresses Histone deacetylase 1 (Homo sapiens, UniProt Q13547). Description: Inhibition of HDAC1 (unknown origin) using trypsin and LGK(Ac)-AMC as substrates incubated for 1 hr and measured by fluorescence assay.
Data set [1] has as its system MC-38. Description: Antiproliferative activity against mouse MC38 cells after 72 hrs by CCK-8 assay. In kind it is functional. (Tetrazolium assays rely on reduction of a dye to a coloured formazan, in cell work by metabolically active cells.)
A short description of data set [2]: Tmax in male ICR mouse at 20 mg/kg, po measured up to 24 hrs by LC-MS/MS analysis. In kind it is ADME, organism-based. Particulars: in vivo.
Data set [3] is described as follows: Initial plasma concentration in male ICR mouse at 5 mg/kg, iv measured up to 24 hrs by LC-MS/MS analysis. In kind it is ADME, organism-based.
Data set [4] in a line: AUC (0 to t) in male ICR mouse at 5 mg/kg, iv measured up to 24 hrs by LC-MS/MS analysis. In kind it is ADME, organism-based. The arrangement: time < 24 hrs, dose 5 mg/kg, route iv. Particulars: in vivo.
A short description of data set [5]: Mean residence time in male ICR mouse at 5 mg/kg, iv measured up to 24 hrs by LC-MS/MS analysis. In kind it is ADME, organism-based. Particulars: in vivo.
Data set [6] in a line: Volume of distribution at steady state in male ICR mouse at 5 mg/kg, iv measured up to 24 hrs by LC-MS/MS analysis. In kind it is ADME, organism-based. Conditions: in vivo.
Data set [7] is described as follows: Half-life in male ICR mouse at 20 mg/kg, ip measured up to 24 hrs by LC-MS/MS analysis. Particulars: in vivo. In kind it is ADME, organism-based.
The nature of data set [8]: Tmax in male ICR mouse at 20 mg/kg, ip measured up to 24 hrs by LC-MS/MS analysis. In kind it is ADME, organism-based. Conditions: in vivo.
Data set [9] can be described thus: Cmax in male ICR mouse at 20 mg/kg, ip measured up to 24 hrs by LC-MS/MS analysis. In kind it is ADME, organism-based. On the set-up: time < 24 hrs, dose 20 mg/kg, route ip. Conditions: in vivo.
Data set [10] in a line: AUC (0 to t) in male ICR mouse at 20 mg/kg, ip measured up to 24 hrs by LC-MS/MS analysis. In kind it is ADME, organism-based. On the set-up: dose 20 mg/kg, time < 24 hrs, route ip. Conditions: in vivo.
Data set [11] is described as follows: Bioavailability in male ICR mouse at 20 mg/kg,ip measured up to 24 hrs by LC-MS/MS analysis. In kind it is ADME, organism-based. Conditions: in vivo.
The target in the next data set is T1, Adenosine receptor A1 (Homo sapiens, UniProt P30542).
T1 sequence (P30542 whole entry): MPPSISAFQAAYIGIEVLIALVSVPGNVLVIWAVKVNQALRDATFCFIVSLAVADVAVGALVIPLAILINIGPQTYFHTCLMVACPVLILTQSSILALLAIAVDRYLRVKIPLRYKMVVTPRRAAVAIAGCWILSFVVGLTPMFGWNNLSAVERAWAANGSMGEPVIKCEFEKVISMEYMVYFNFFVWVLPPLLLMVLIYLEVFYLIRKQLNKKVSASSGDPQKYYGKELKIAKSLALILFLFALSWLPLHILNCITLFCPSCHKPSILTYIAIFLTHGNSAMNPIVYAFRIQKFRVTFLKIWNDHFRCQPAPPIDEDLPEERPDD
Description: Displacement of [3H]DPCPX from human A1AR incubated for 60 mins by scintillation counter analysis.

The target in a further data set is Histone deacetylase 2 (Homo sapiens, UniProt Q92769). Description: Inhibition of HDAC2 (unknown origin) using trypsin and LGK(Ac)-AMC as substrates incubated for 1 hr and measured by fluorescence assay.
The target in data set [12] is T2, Protein deacetylase HDAC6 (Homo sapiens, UniProt Q9UBN7).
T2 sequence (Q9UBN7 whole entry): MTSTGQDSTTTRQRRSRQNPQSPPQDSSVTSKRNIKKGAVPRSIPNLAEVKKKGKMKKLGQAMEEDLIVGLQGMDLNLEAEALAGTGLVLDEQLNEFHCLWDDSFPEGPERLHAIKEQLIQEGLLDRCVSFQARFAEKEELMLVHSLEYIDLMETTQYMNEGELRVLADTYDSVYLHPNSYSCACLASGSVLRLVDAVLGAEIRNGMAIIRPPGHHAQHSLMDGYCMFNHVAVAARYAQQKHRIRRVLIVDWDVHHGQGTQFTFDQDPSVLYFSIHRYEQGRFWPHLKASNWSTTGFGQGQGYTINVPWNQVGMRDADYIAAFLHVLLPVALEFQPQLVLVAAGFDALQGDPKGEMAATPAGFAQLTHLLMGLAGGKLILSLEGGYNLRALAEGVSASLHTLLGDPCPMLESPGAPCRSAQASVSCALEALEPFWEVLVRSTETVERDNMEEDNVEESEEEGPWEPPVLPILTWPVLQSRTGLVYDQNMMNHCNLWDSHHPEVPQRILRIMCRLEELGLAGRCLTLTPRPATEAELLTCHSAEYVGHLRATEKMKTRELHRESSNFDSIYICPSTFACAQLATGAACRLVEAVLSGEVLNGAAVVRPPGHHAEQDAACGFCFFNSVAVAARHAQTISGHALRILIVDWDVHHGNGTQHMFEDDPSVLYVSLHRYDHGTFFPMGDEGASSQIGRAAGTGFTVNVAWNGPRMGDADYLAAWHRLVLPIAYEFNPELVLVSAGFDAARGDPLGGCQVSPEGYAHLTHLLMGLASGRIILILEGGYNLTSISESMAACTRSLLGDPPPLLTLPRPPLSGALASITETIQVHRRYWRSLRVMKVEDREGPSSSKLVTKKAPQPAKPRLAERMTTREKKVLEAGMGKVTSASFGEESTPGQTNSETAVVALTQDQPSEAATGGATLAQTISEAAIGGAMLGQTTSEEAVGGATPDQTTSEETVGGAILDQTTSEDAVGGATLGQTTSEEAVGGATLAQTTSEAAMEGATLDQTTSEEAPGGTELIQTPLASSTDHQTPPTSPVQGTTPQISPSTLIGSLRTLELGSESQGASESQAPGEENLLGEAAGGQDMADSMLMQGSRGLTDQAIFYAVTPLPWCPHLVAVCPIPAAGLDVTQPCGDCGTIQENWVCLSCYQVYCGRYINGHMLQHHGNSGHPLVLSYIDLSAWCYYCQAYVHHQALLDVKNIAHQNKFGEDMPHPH
Description: Inhibition of HDAC6 (unknown origin) using trypsin and LGK(Ac)-AMC as substrates incubated for 1 hr and measured by fluorescence assay.

A further data set deals with T3, Histone deacetylase 8 (Homo sapiens, UniProt Q9BY41).
T3 sequence (Q9BY41 whole entry): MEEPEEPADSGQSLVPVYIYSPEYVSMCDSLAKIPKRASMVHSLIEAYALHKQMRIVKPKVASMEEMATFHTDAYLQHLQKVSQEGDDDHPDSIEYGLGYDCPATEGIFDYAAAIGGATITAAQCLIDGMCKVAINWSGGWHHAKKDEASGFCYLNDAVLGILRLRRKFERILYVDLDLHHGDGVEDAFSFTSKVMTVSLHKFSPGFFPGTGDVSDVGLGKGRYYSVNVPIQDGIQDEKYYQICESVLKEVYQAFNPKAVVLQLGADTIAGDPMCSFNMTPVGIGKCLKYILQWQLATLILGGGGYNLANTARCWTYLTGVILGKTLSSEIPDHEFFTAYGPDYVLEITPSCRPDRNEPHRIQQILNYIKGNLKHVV
Description: Inhibition of HDAC8 (unknown origin) using trypsin and LGK(Ac)-AMC as substrates incubated for 1 hr and measured by fluorescence assay.

Data set [13] deals with MC-38. Description: Antitumor activity against mouse MC38 cells xenografted in C57 mouse assessed as tumor growth inhibition at 30 mg/kg, ip administered twice a day. In kind it is functional. Conditions: read-out: TGI.

This note sets out measurements from ChEMBL document CHEMBL5154845, “Dual-acting antitumor agents targeting the A2A adenosine receptor and histone deacetylases: Design and synthesis of 4-(furan-2-yl)-1H-pyrazolo[3,4-d]pyrimidin-6-amine derivatives” (Eur J Med Chem, 2022).

Chain of Histone deacetylase 1 (Q13547 whole entry): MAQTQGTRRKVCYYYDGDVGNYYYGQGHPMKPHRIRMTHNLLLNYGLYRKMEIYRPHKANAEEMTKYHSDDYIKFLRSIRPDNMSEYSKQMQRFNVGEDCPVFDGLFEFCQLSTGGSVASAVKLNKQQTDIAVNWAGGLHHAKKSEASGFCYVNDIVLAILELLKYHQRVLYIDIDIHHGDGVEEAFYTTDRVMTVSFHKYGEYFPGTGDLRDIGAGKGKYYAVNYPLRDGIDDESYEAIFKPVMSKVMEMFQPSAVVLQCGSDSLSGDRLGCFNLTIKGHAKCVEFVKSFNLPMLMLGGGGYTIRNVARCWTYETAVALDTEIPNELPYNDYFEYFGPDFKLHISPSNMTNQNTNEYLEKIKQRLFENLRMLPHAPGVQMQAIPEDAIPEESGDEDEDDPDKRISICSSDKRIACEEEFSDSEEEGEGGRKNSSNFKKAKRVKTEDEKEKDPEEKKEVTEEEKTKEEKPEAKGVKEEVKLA
Chain of Histone deacetylase 2 (Q92769 whole entry): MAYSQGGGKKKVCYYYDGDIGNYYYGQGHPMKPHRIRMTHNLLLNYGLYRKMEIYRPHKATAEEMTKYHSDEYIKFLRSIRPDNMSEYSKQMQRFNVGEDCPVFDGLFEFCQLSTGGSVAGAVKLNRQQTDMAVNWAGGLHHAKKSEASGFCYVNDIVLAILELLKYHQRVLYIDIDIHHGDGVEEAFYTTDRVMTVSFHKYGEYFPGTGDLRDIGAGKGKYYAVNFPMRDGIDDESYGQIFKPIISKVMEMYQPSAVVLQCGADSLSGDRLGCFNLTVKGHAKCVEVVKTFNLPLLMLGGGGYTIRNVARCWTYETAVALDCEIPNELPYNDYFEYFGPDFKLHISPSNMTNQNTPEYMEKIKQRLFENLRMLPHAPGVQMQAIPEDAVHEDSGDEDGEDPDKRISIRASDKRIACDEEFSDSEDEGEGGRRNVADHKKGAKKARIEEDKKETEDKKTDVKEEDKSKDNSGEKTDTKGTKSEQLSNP

Broadly, the IC50 is the midpoint of a concentration-inhibition curve. For orientation: GI50 means the concentration giving 50% growth inhibition. In general, Tmax refers to the time from dosing to the highest level. A word on the MRT: it is a mean duration of stay, worked out from the concentration-time curve. A word on the Vdss: it is the apparent volume that relates the amount in the body to the concentration in plasma or blood. A low value points to little distribution into tissue. For orientation: half-life means the time needed for the level to fall by half in the phase considered. The term Cmax denotes the highest concentration seen after dosing. In general, AUC(0-t) refers to exposure summed from dosing to a finite time, without extrapolation to infinity. One may read the Ki as the dissociation constant of the complex between target and ligand, obtained from inhibition or displacement. A low value points to tighter binding. For the compound `Nc1nc(-c2ccco2)c2cnn(CCc3ccc(C(=O)Nc4ccccc4N)cc3)c2n1`, the IC50 on Histone deacetylase 1 was 145 nM; on Histone deacetylase 2, 240 nM; in data set [12] it was greater than 10000 nM; against Histone deacetylase 8 it was greater than 10000 nM. In addition, it took 290 nM to inhibit growth with MC-38 [1] by half (GI50). The Tmax was determined as 20 min in data set [2] and 15 min in data set [8]. The C0 at 24 h in data set [3] is 6500 ng/mL. For the same compound, the AUCt in data set [4] is 2098 ng·h/mL. For the same compound, the mean residence time (MRT) in data set [5] was determined as 23.4 min. The compound further came in with a distribution volume (Vdss) in data set [6] of 0.92 L/kg. Further, the half-life in data set [7] is 49.8 min. The same compound registered a Cmax in data set [9] of 8410 ng/mL. Further, the AUC(0-t) at 24 h in [10] is 10000 ng·h/mL. Moreover, the bioavailability in data set [11] turned out to be 119%. Also, the Ki at Adenosine receptor A1 was 503 nM. Further, in the data set on MC-38 [13], the inhibition in vivo at 30 mg/kg worked out at 68%.
